In patent US20080064692A1:
Where two headings read alike, the source gives them in different places.

Assays:
[1] = test system: Plasmopara viticola; assay: Activity against Peronospora of grapevines caused by Plasmopara viticola; conditions: vines cultivar Riesling, protective spray
Method: (§1) 1% by weight of the emulsifier Uniperol® EL (wetting agent having emulsifying and dispersant action based on ethoxylated alkylphenols) was added to this solution, and the mixture was diluted with water to the desired concentration.
(§2) Evaluation is carried out by determining the infected leaf areas in percent. These percentages were converted into efficacies.
(§3) The efficacy (E) is calculated as follows using Abbot's formula:
(§4) α corresponds to the fungicidal infection of the treated plants in % and β corresponds to the fungicidal infection of the untreated (control) plants in %
(§5) An efficacy of 0 means that the infection level of the treated plants corresponds to that of the untreated control plants; an efficacy of 100 means that the treated plants are not infected.
The next day, the undersides of the leaves were inoculated with an aqueous zoospore suspension of Plasmopara viticola. The grapevines were then initially placed in a water-vapor-saturated chamber at 24° C. for 48 hours and then in a greenhouse at 20-30° C. for 5 days. After this period of time, the plants were again placed in a humid chamber for 16 hours to promote sporangiophore eruption. The extent of the development of the disease on the undersides of the leaves was then determined visually.

[2] = test system: Corticium sasakii; conditions: rice cultivar Tai-Nong 67, protective spray, evaluated after 11 days
Method: as §1, §2, §3, §4, §5
The next day, oat grains infected with Corticium sasakii were placed into the pots (in each case 5 grains per pot). The plants were then placed in a chamber at 26° C. and maximum atmospheric humidity.

Row | SMILES | Efficacy in % of the untreated control ([1]; 4 ppm in the spray liquor) | Efficacy in % of the untreated control ([1]; 16 ppm in the spray liquor) | Efficacy in % of the untreated control ([2]; 4 ppm in the spray liquor) | Efficacy in % of the untreated control ([2]; 1 ppm in the spray liquor) | Efficacy in % of the untreated control ([2]; 16 ppm in the spray liquor)
1 | CC1CCN(c2c(-c3c(F)cc(F)cc3F)c(Cl)nc3ncnn23)CC1 [I, 5-chloro-7-(4-methylpiperidin-1-yl)-6-(2,4,6-trifluorophenyl)-[1,2,4]triazolo[1,5-a]pyrimidine] | 21% | 44% | 30% |  | 
2 | CO/N=C(/C1=NOCCO1)c1ccccc1Oc1ncnc(Oc2ccccc2Cl)c1F [II (fluoxastrobin), {2-[6-(2-chlorophenoxy)-5-fluoropyrimidin-4-yloxy]phenyl}-(5,6-dihydro-[1,4,2]dioxazin-3-yl)methanon O-methyl oxime] | 21% | 55% |  | 0% | 18%
